# Results: patent publication US6458781B1, “Substituted diarylalkyl amides as calcium channel antagonists” (priority 1998, dated 2002)
# Where a name gives a salt, the structure may show the parent alone. Read-outs that look alike come from different tables or passages of the source.
# Key:
# [1] = target: T1, N-type calcium channels in IMR-32 cells (Homo sapiens, UniProt Q00975); experiment: N-type Ca2+ channel blocking potency in IMR-32 cells using Indo-1; type: cell-based; details: for IC50: IMR-32 cells
# T1 construct: host or cells: IMR-32 cells differentiated with dibutyryl cAMP and bromodeoxyuridine
# T1 sequence (Q00975 whole entry): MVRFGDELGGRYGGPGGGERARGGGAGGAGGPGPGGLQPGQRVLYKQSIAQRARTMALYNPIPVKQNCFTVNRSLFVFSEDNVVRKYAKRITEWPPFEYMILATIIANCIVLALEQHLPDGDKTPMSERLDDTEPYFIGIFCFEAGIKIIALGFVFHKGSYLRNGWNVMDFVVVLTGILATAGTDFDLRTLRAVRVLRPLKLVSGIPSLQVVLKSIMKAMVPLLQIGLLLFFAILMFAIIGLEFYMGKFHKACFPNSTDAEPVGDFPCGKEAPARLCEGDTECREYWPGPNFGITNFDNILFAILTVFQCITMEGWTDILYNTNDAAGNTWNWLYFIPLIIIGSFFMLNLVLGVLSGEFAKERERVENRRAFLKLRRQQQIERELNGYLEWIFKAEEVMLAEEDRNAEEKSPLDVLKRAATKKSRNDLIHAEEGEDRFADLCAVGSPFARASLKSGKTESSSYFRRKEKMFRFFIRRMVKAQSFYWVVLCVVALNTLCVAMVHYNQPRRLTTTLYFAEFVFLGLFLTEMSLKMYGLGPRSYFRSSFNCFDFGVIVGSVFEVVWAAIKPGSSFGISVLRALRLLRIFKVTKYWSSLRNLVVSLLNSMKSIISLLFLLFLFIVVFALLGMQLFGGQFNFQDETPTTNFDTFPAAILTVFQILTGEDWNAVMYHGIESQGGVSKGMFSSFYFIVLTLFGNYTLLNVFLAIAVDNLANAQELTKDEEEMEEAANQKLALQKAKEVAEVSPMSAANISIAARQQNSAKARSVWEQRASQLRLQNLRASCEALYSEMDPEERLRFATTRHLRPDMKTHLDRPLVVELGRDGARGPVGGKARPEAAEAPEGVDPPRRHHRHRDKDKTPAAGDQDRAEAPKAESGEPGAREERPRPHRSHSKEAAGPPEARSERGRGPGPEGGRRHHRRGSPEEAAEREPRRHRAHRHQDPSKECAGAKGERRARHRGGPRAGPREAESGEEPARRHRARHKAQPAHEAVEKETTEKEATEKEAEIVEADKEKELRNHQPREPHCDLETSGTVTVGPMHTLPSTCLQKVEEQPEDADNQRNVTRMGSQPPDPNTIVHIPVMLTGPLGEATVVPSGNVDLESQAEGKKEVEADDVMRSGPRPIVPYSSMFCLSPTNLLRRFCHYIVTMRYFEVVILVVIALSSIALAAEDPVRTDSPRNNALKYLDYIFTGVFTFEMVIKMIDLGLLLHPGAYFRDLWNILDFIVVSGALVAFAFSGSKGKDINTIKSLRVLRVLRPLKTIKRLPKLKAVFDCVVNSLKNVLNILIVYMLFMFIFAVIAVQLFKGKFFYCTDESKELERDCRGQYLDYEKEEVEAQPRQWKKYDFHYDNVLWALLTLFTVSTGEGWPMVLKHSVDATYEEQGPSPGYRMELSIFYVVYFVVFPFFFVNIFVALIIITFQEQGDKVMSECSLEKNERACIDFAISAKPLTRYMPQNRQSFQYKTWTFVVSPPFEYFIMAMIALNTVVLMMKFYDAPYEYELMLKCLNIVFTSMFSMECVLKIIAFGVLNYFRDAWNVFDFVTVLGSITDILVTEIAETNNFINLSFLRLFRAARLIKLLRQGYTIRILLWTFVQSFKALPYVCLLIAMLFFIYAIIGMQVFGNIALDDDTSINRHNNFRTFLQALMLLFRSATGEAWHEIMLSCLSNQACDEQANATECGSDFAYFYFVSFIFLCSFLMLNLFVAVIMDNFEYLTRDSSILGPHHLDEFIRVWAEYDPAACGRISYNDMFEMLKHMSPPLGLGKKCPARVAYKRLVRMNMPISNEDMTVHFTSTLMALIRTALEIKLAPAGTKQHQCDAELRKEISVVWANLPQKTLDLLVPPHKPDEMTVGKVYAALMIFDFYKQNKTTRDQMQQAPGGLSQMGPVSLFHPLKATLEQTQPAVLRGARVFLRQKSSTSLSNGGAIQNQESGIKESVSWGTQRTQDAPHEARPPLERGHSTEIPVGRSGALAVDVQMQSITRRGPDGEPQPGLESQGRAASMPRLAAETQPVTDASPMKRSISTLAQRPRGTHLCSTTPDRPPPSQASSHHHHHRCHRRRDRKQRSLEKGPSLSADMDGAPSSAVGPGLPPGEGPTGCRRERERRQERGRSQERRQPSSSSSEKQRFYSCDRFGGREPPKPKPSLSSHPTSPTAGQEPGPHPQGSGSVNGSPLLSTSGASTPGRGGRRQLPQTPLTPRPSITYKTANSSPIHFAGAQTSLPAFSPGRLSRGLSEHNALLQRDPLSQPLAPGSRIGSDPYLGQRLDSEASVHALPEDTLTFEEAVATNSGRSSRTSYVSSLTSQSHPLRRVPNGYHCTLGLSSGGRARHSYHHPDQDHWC
# T1 sequence (P54289 25-956 partner limits assumed): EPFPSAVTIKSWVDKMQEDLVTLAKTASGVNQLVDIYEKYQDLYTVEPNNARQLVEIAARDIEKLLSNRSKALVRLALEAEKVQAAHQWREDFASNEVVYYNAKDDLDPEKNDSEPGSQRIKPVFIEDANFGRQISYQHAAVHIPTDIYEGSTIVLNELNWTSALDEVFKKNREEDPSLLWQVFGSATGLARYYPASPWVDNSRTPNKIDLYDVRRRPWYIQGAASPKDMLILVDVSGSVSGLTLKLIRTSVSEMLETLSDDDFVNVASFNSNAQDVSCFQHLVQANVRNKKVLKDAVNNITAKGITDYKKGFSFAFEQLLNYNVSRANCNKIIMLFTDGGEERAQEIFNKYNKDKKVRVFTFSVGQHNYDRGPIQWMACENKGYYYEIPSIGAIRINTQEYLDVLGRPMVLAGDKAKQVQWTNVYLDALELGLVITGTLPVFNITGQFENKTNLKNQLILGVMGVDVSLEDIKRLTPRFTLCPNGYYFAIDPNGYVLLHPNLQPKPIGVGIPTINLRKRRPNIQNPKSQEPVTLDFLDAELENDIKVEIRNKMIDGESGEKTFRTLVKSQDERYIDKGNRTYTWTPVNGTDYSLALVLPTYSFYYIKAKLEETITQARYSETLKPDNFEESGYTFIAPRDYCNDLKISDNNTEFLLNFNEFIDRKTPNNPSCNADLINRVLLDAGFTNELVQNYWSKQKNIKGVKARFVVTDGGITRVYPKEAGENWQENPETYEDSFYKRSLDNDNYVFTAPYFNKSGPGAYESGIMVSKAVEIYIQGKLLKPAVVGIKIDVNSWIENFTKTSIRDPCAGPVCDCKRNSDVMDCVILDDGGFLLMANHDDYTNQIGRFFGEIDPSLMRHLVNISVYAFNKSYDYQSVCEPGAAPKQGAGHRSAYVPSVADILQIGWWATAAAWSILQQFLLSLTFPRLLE
# T1 sequence (P54289 957-1103 partner limits assumed): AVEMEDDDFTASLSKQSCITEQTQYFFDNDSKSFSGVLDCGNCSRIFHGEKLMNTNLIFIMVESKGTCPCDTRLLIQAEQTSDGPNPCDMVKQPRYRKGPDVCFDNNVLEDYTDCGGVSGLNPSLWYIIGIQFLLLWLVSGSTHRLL
# T1 sequence (Q02641 whole entry partner): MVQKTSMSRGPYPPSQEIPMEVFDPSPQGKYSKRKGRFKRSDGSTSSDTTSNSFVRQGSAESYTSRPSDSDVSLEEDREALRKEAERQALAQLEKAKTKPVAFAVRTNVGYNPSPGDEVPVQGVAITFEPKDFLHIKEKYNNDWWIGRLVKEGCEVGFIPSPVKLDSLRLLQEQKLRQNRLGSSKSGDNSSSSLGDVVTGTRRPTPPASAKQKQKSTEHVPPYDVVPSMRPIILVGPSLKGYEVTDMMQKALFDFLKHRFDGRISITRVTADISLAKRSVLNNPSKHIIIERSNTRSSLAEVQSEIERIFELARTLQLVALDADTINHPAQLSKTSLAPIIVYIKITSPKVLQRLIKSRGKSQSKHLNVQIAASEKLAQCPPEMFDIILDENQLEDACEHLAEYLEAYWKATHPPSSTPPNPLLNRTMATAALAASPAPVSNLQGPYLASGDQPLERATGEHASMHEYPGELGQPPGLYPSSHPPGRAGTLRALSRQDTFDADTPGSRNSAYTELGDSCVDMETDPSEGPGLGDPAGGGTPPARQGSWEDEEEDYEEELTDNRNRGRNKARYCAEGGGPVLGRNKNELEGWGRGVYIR
# Outline: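 Differentiated IMR-32 cells loaded with Indo-1 AM were preincubated with compound and 5 μM nitrendipine (L-type block) for 10 min at 30° C in HEPES/Tris pH 7.4 HBSS with 0.5% BSA. Cells were depolarized with KCl/CaCl2, and the 400/490 nm emission ratio rise over basal was measured. IC50 came from a four-parameter logistic fit.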
# [2] = test system: electroshock-induced tonic extensor seizures in CF-1 mice; experiment: Maximal electroshock testing; type: in vivo; details: protected/tested
# Protocol: Maximal Electroshock Testing
# In this test, four representative compounds were tested for their anticonvulsant effects using the procedure described below.
# Male CF-1 mice, 20 to 28 g, from Charles River Laboratories, Portage, Mich. were used in all experiments. Groups of 10 mice each were given various intravenous doses of test compound in aqueous solution with 10% Emulphan® Surfactant in a volume of 10 mL/kg of body weight. Electroshock was delivered by corneal electrodes with 60 Hz alternating current (50 mA root-mean-squared for 0.2 seconds) using a constant-current stimulator (Wahlquist Instruments, Salt Lake City, Utah). Untreated or saline-treated mice reliably had tonic extensor seizures with rearward extension of hindlimbs more than 3 seconds. These methods are similar to those published by Krall R. L.; Penry J. K.; White B. G.; and Kupferberg H. K. Antiepileptic Drug Development II. Anticonvulsant Drug Screening, Epilepsia, 1978; 19:409-428.
# [3] = 5 μM nitrendipine present, read-out: IMR32 IC50
# [4] = 10 mg/Kg iv, 15 min posttreatment
# [5] = 30 mg/Kg iv, 15 min posttreatment
# [6] = estimated from two data points, read-out: IMR32 IC50 (estimated IC50 values based on two data points)
smiles,measurement,setting,value
"CC(C)C[C@H](N)C(=O)NCCCC(c1ccc(F)cc1)c1ccc(F)cc1 [Example 7, (S)-2-Amino-4-methyl-pentanoic acid [4,4-bis-(4-fluoro-phenyl)-butyl]-amide monohydrochloride]",IC50,[1]; [3],2400 nM
"CC(C)C[C@H](NCC1CCCCC1)C(=O)NCCCC(c1ccc(F)cc1)c1ccc(F)cc1 [Example 8, (S)-2-(Cyclohexylmethyl-amino)-4-methyl-pentanoic acid [4,4-bis-(4-fluoro-phenyl)-butyl]-amide monohydrochloride]",IC50,[1]; [3],460 nM
same,Number of Mice Protected from Tonic Convulsions,[2]; [4],0/4
same,Number of Mice Protected from Tonic Convulsions,"[2]; 10 mg/Kg iv, 45 min posttreatment",0/5
same,Number of Mice Protected from Tonic Convulsions,[2]; [5],4/4
same,Number of Mice Protected from Tonic Convulsions,"[2]; 30 mg/Kg iv, 45 min posttreatment",2/2
"CC(C)=CCN[C@@H](CC(C)C)C(=O)NCCCC(c1ccc(F)cc1)c1ccc(F)cc1 [Example 9, (S)-4-Methyl-2-(3-methyl-but-2-enylamino)-pentanoic acid [4,4-bis-(4-fluoro-phenyl)-butyl]-amide monohydrochloride]",IC50,[1]; [3],280 nM
same,Number of Mice Protected from Tonic Convulsions,[2]; [4],10/10
same,Number of Mice Protected from Tonic Convulsions,[2]; [5],10/10
"CN[C@@H](CC(C)C)C(=O)NCCCC(c1ccc(F)cc1)c1ccc(F)cc1 [Example 12, (S)-4-Methyl-2-methylamino-pentanoic acid [4,4-bis-(4-fluoro-phenyl)-butyl]-amide monohydrochloride]",IC50,[1]; [3],1430 nM
"CC(C)C[C@@H](C(=O)NCCCC(c1ccc(F)cc1)c1ccc(F)cc1)N(C)Cc1ccc(C(C)(C)C)cc1.Cl [Example 14, (S)-2-[(4-tert-Butyl-benzyl)-methyl-amino]-4-methyl-pentanoic acid [4,4-bis-(4-fluoro-phenyl)-butyl]-amide monohydrochloride]",IC50,[1]; [3],840 nM
same,melting point,,87 to 95 °C
"CC(C)CCN(C)[C@@H](CC(C)C)C(=O)NCCCC(c1ccc(F)cc1)c1ccc(F)cc1 [Example 28, (S)-4-Methyl-2-[methyl-(3-methyl-butyl)-amino]-pentanoic acid [4,4-bis-(4-fluoro-phenyl)-butyl]-amide monohydrochloride]",inhibition at 1 µM,"[1]; IMR-32, IMR-32 cells, at 1 μM, read-out: IMR32 % blockage at 1 μM",92%
same,inhibition at 10 µM,"[1]; IMR-32, IMR-32 cells, at 10 μM, read-out: IMR32 % blockage at 10 μM",97%
"CC(C)C[C@H](NC(=O)N1CCCCCC1)C(=O)N1CCN(C(c2ccc(F)cc2)c2ccc(F)cc2)CC1 [Example 31, (S)-Azepane-1-carboxylic acid (1-{4-[bis-(4-fluoro-phenyl)-methyl]-piperazine-1-carbonyl}-3-methyl-butyl)-amide]",IC50,[1]; [3],480 nM
"CC(C)[C@H](NC(=O)N1CCCCCC1)C(=O)N1CCN(C(c2ccc(F)cc2)c2ccc(F)cc2)CC1 [Example 33, (S)-Azepane-1-carboxylic acid (1-{4-[bis-(4-fluoro-phenyl)-methyl]-piperazine-1-carbonyl}-2-methyl-propyl)-amide]",IC50,[1]; [3],850 nM
"CC(C)C[C@@H](CN1CCN(C(c2ccc(F)cc2)c2ccc(F)cc2)CC1)NC(=O)N1CCCCCC1 [Example 36, (S)-Azepane-1-carboxylic acid (1-{4-[bis-(4-fluoro-phenyl)-methyl]-piperazin-1-ylmethyl}-3-methyl-butyl)-amide]",IC50,[1]; [6],500 nM
"CC(C)C[C@@H](C(=O)N1CCN(C(c2ccc(F)cc2)c2ccc(F)cc2)CC1)N(C)C [Example 39, (S)-1-{4-[Bis-(4-fluoro-phenyl)-methyl]-piperazin-1-yl}-2-dimethylamino-4-methyl-pentan-1-one dihydrochloride]",IC50,[1]; [6],3500 nM
